Results published in patent US20080113347A1, “Method for the in Vitro Diagnosis and Prognosis of Demyelinating Diseases, and for the Development of Drugs Against Demyelinating Diseases” (priority 2003, published 2008).
d = 2'-deoxy (DNA); m = 2'-O-methyl

How the values were obtained:
[1] = test system: oligodendrocytes treated with AMPA; test: Cell death inhibition in oligodendrocytes treated with AMPA after incubation with antisense oligonucleotides; type: cell-based, rat; details: ODN transfected with Lipofectin, stimulus 15 minutes, protecting effect assessed after 6 hours
Experimental: To evaluate if dusp6 expression blocking inhibits cell death of oligodendrocytes treated with AMPA, antisense oligonucleotides (ODNs) capable of blocking said gene expression were used. The working model used in this assay is a model based on the cell death of oligodendrocytes, a typical model for study the neurodegenerative phase of said demyelinating diseases.
Oligonucleotide design was carried out based on the secondary structure of the RNA, trying to prevent sequences presenting a high internal hybridization percentage, and with the aid of AO predict (http://www.cgb.ki.se/AOpredict/) computer software. To improve efficacy and capability to degrade RNA and to reduce side effects, last-generation oligonucleotides were designed, presenting two types of modifications; 2′-O-Methyl groups in the 6 first and last bases, and phosphorothiodated groups in the 8 intermediate bases. Furthermore, the oligonucleotides were labeled with Texas Red to be able to identify the cells transfected with said oligonucleotides.
Three antisense ODNs, for the purpose of identifying active sequences, plus a sense ODN, used as a negative control, were designed. To improve penetration thereof, the ODNs were transfected using the Lipofectin kit (Invitrogen).
24 hours after seeding, the oligodendrocytes were treated with a mixture of ODs at different concentrations coupled to the transfection kit liposomes.
After 24 hours, the cells were rinsed and were left another 24 hours before the experiment to ensure total blocking of the protein under study. Subsequently, the excitotoxic stimulus, AMPA 10 μM+CTZ 100 μM, was added during 15 minutes, and the protecting effect of the different ODNs after 6 hours was assessed.

dusp6 gene expression = test: Differential analysis of dusp6 gene expression in oligodendrocyte cultures with Rat Genome U34 DNA arrays; type: cell-based; set-up: key to Change: Increases (I); Decreases (D); undergoes No Change (NC); Marginally Increases (MI); Marginally Decreases (MD); key to Detection: Present (P); Absent (A); Marginal (M); details: for Ratio (=2^SLR): fold change vs untreated control; for Signal (dusp6, probe set U42627_at): arrays scaled to total intensity 100; for Change: vs control
Excerpt: Microarrays. The microarrays GeneChip Test 3 (Affymetrix, Santa Clara) were used which allow testing the quality of the RNA prior to the expression analysis with GeneChip Rat Genome U34 set (Affymetrix, Santa Clara), representing 3322 complete gene sequences. The dusp6 gene is represented in the microarray by probe set U42627_at of Affymetrix, which are sense oligonucleotides of 25 nucleotides in length designed on the basis of GeneBank U42627 sequence (Table 1).
Samples. The samples studied corresponded to primary oligodendrocyte cultures obtained from the optic nerve of 12-day old rats. To prevent inter-individual variations, each culture corresponded to a 10-animal cell pool. Treatments were made in duplicate with 10 μM AMPA (α-amino-3-hydroxy-5-methyl-4-isoxazolepropionic acid) or 3 μM kainate. The duration of treatments was 2, 10 and 15 minutes, the cells being collected immediately after treatment in the first two cases and 1 hour after the 15-minute treatment. Treatment for 10 and 15 minutes with AMPA and with kainate causes apoptosis, whereas 2-minute treatment was considered sublethal due to scarce treatment duration. After treatments, the cells were collected in TRIzol® Reagent (Life Technologies) and were stored at −80° C. until total RNA extraction.
The analysis was carried out with total RNA from oligodendrocyte cultures. Each sample corresponded to the mixture of total RNAs from two cultures and were called the following: control: untreated cultured oligodendrocytes ampa 2: oligodendrocytes treated for 2 minutes with 10 μM AMPA and collected after treatment ampa 10: oligodendrocytes treated for 10 minutes with 10 μM AMPA collected after treatment ampa 15: oligodendrocytes treated for 15 minutes with 10 μM AMPA and collected 60 minutes later Kainate 2: oligodendrocytes treated for 2 minutes with 3 μM kainate and collected after treatment Kainate 10: oligodendrocytes treated for 10 minutes with 3 μM kainate and collected after treatment Kainate 15: oligodendrocytes treated for 15 minutes with 3 μM kainate and collected 60 minutes later The total RNA of each one of the cultures was obtained by homogenizing the cells in TRIzol® Reagent (Life Technologies) following the supplier's recommendations. The resulting total RNA was cleaned with the RNeasy Mini kit (QIAGEN) (Chomczynski P. et al., Anal. Biochem., 1987, 162: 156; Chomczynski P., Biotechniques, 1993, 15: 532). 2 μg from each total RNA preparation were used as starting material for the synthesis of biotinylated cRNA with the MessageAmp™ aRNA kit (Ambion).
15 μg of each biotinylated cRNA were fragmented at 94° C. for 35 minutes in a buffer solution containing 40 mM Tris-Acetate (pH 8.1), 100 mM KOAc and 30 mM MgOAc. The fragmented cRNA was mixed with hybridization buffer (10 mM MES, 1M NaCl, 20 mM EDTA, 0.01% Tween 20) and was heated at 99° C. for 5 minutes and subsequently at 45° C. for 5 minutes, to then be loaded into the Affymetrix array. The first array in which hybridization was carried out was Affymetrix Test 3. This array allows testing the quality of the RNA prior to expression analysis in the Affymetrix® GeneChip® Rat Genome U34 set (RG-U34).
For hybridization, the arrays were incubated in a rotary oven at 45° C. for 16 hours and with a constant rotation of 60 rpm.
Washing and staining of each array was carried out in the Affymetrix® Fluidics Station. A washing and staining program was used which included:
The arrays were scanned at 560 nm using a confocal microscope using laser emission (Agilent GeneArray Scanner). Analysis of the intensity readings was carried out with Microarray Suite 5.0 software. To compare the arrays, the latter were scaled to a total intensity of 100.
Differential analysis of the dusp6 gene expression in the oligodendrocytes stimulated with regard to the control was carried out from the array comparison data obtained using the Affymetrix software. […]

oligodendrocytes = details: UO126 10 μM
Experimental: DUSP6 is a negative regulator of the MAPK/ERK signaling pathway which promotes cell survival, as documented above in the Background of the Invention section. Because of that, we tested if the pharmacological inhibition of this pathway potentiates oligodendrocyte death triggered by activation of AMPA receptors.
To block the MAPK/ERK pathway, oligodendrocytes were incubated with UO126, a dual MEK1 & 2 inhibitor, for 15 min prior to the excitotoxic stimulus. Subsequently, cells were exposed to AMPA 10 μM+CTZ 100 μM during 15 minutes in the presence or absence of UO126, and cell viability was assessed 24 h later by the MTT method.

[2] = treated 2 minutes (10 μM AMPA or 3 μM kainate), collected after treatment
[3] = treated 10 minutes (10 μM AMPA or 3 μM kainate), collected after treatment
[4] = treated 15 minutes (10 μM AMPA or 3 μM kainate), collected 60 minutes later
[5] = treatments with kainate (3 μM; 2, 10 and 15 minutes) taken together

With “ODN2: antisense ODN against dusp6; 2′-O-Methyl groups in 6 first and last bases, phosphorothiodated 8 intermediate bases, Texas Red labeled (antisense TCAACGTGGCCATCCCGGGC; sugars from the 5' end m6 d8 m6, backbone, methylation of C and T or U not given here; Texas Red label, phosphorothioates in eight intermediate bases)” the “oligodendroglial death after stimulation with AMPA 10 μM+CTZ 100 μM” value (“oligodendroglial death after stimulation” below) [1] was “significantly inhibited” and the “oligodendroglial death after stimulation” value ([1]; listed as SEQ ID NO:3) was “inhibit cell death of oligodendrocytes treated with AMPA”.

For “ODN3: antisense ODN against dusp6; 2′-O-Methyl groups in 6 first and last bases, phosphorothiodated 8 intermediate bases, Texas Red labeled (antisense CCAAGTGGACTCCCTGCAATC; sugars from the 5' end m6 d9 m6, backbone, methylation of C and T or U not given here; Texas Red label, phosphorothioates in eight intermediate bases)”, the “oligodendroglial death after stimulation” value [1] was “significantly inhibited” and the “oligodendroglial death after stimulation” value ([1]; listed as SEQ ID NO:4) was “inhibit cell death of oligodendrocytes treated with AMPA”.

C=C(C)[C@H]1CN[C@H](C(=O)O)[C@H]1CC(=O)O [Kainate, kainate] was tested, and the “SLR (vs control)” value (dusp6 gene expression; Signal Log Ratio (log2), treated 2 minutes (10 μM AMPA or 3 μM kainate), collected after treatment) was 0.6, the “SLR (vs control)” value (dusp6 gene expression; Signal Log Ratio (log2), treated 10 minutes (10 μM AMPA or 3 μM kainate), collected after treatment) was 0.6 and the “SLR (vs control)” value (dusp6 gene expression; Signal Log Ratio (log2), treated 15 minutes (10 μM AMPA or 3 μM kainate), collected 60 minutes later) was 0.9. For the same molecule, the “Ratio (=2^SLR)” value (dusp6 gene expression; [2]) was 1.5 fold, the “Ratio (=2^SLR)” value (dusp6 gene expression; [3]) was 1.5 fold and the “Ratio (=2^SLR)” value (dusp6 gene expression; [4]) was 1.9 fold. The Detection (dusp6 gene expression; [2]) was “P”, the “Signal (dusp6, probe set U42627_at)” value (dusp6 gene expression; [2]) was 48.4 and the Detection (dusp6 gene expression; [3]) was “P”. For the same molecule, the “Signal (dusp6, probe set U42627_at)” value (dusp6 gene expression; [3]) was 43.5, the Detection (dusp6 gene expression; [4]) was “P” and the “Signal (dusp6, probe set U42627_at)” value (dusp6 gene expression; [4]) was 63.7. The “SLR (vs control)” value (dusp6 gene expression; [5]) was under 1, the “dusp6 expression increase with regard to the control” value (dusp6 gene expression; [5]) was “less than two fold” and the Change (dusp6 gene expression; [2]) was “I”. For the same molecule, the Change (dusp6 gene expression; [3]) was “I” and the Change (dusp6 gene expression; [4]) was “I”.

With N#CC(=C(/N)Sc1ccccc1N)/C(C#N)=C(/N)Sc1ccccc1N [UO126] the “oligodendroglial cell death induced by AMPA 10 μM+CTZ 100 μM in the presence of UO126” value (oligodendrocytes; 15 min prior to and during 15 minutes stimulus, MTT 24 h later, p<0.05, n=3 in triplicate) was “increased three-fold” and the “oligodendroglial viability under control conditions” value (oligodendrocytes; MTT, 24 h later) was “did not affect oligodendroglial viability”.
